In brackets after ≈: the same amount, converted by molar mass. Like-named read-outs stand apart in the source and are kept apart here.
Assays:
[1] = biological target: DHPS enzyme (dihydropteroate synthase) (Bacillus anthracis, UniProt Q81VW8); assay: biochemical; conditions: for inhibition at 0.1 µg/mL / inhibition at 1 µg/mL / inhibition at 10 µg/mL / inhibition at 100 µg/mL: read-out: Inhibition % against DHPS enzyme
[2] = test system: K. pneumonia (ATCC: 4415); assay: Agar well diffusion, inhibition zone, K. pneumonia; assay type: cell-based; conditions: for zone of inhibition at 15000 µg/mL: Klebsiella pneumoniae, read-out: Diameter of the Inhibition Zone, K. pneumonia
E. coli (ATCC: 3008) = assay: Agar well diffusion, inhibition zone, E. coli; assay type: cell-based; conditions: for zone of inhibition at 15000 µg/mL: Escherichia coli, read-out: Diameter of the Inhibition Zone, E. coli
[3] = test system: P. aeruginosa (ATCC: 27853); assay: Agar well diffusion, inhibition zone, P. aeruginosa; assay type: cell-based; conditions: for zone of inhibition at 15000 µg/mL: Pseudomonas aeruginosa, read-out: Diameter of the Inhibition Zone, P. aeruginosa
S. mutans = assay: MIC, twofold serial dilution, S. mutans; assay type: cell-based; conditions: Streptococcus mutans; twofold serial dilution in broth, 37 °C 16–20 h; read-out: The Minimum Inhibitory Concentration (MIC), S. mutans
S. aureus (ATCC: 6538) = assay: Agar well diffusion, inhibition zone, S. aureus; assay type: cell-based; conditions: Staphylococcus aureus; agar well diffusion, 15 mg/mL, 100 μL per well, 37 °C 24 h, mean ± SD, triplicate; read-out: Diameter of the Inhibition Zone, S. aureus
S. mutans (ATCC: 25175) = assay: Agar well diffusion, inhibition zone, S. mutans; assay type: cell-based; conditions: Streptococcus mutans; agar well diffusion, 15 mg/mL, 100 μL per well, 37 °C 24 h, mean ± SD, triplicate; read-out: Diameter of the Inhibition Zone, S. mutans
S. aureus = assay: MIC, twofold serial dilution, S. aureus; assay type: cell-based; conditions: Staphylococcus aureus; twofold serial dilution in broth, 37 °C 16–20 h; read-out: The Minimum Inhibitory Concentration (MIC), S. aureus
Procedure: The new synthetic compounds, 6a–c, 12a–c, 14a–c, 16a–c and 19a–e, were tested in vitro to evaluate antibacterial activities against Gram-negative and Gram-positive bacteria, such as E. coli (ATCC: 3008), K. pneumonia (ATCC: 4415) and P. aeruginosa (ATCC: 27853), as an example for Gram-negative bacteria, as well as S. aureus (ATCC: 6538) and S. mutans (ATCC: 25175) for Gram-positive bacteria. The antifungal activities were evaluated also for the novel compounds in vitro against C. albicans (ATCC: 10231). The antibacterial and antifungal activities were determined by the agar-diffusion method using gentamicin, ampicillin and sulfadiazine, example of sulfa drug, as standard drugs against Gram-negative and Gram-positive, while nystatin was used as standard drug against the fungal strain. Table 1 summarizes the results for all tested compounds as the average diameter of inhibition zones of microbial growth around the discs in mm ± SD.
For each strain, three to five isolated colonies were selected from the fresh agar plate and were transferred into a tube containing 3–4 mL of sterile broth medium. The bacterial suspension was mixed well and incubated at 35–37 °C for 2–6 h. The turbidity of the bacterial suspension should be equal to or greater than the turbidity of a McFarland Standard 0.5. After that, 1 mg of the tested compound (antimicrobial agent) was dissolved in 1 mL DMSO and two-fold serial dilution was done using broth medium. A fixed volume of the prepared bacterial inoculum was added to each tube and incubated for at 37 °C 16–20 h. The MIC is defined as the lowest concentration of the antimicrobial agent that inhibits visible growth of the tested isolate as observed with the unaided eye.

P. aeruginosa = assay: MIC, twofold serial dilution, P. aeruginosa; assay type: cell-based; conditions: Pseudomonas aeruginosa, read-out: The Minimum Inhibitory Concentration (MIC), P. aeruginosa
K. pneumonia = assay: MIC, twofold serial dilution, K. pneumonia; assay type: cell-based; conditions: Klebsiella pneumoniae, read-out: The Minimum Inhibitory Concentration (MIC), K. pneumonia
[4] = test system: C. albicans (ATCC: 10231); assay: Agar well diffusion, inhibition zone, C. albicans; assay type: cell-based; conditions: Candida albicans, 15 mg/mL, 100 μL per well, mean ± SD, triplicate, read-out: Diameter of the Inhibition Zone, C. albicans
[5] = agar well diffusion, 15 mg/mL, 100 μL per well, 37 °C 24 h, mean ± SD, triplicate
[6] = twofold serial dilution in broth, 37 °C 16–20 h

DHPS enzyme (dihydropteroate synthase), sequence (Q81VW8 1-280): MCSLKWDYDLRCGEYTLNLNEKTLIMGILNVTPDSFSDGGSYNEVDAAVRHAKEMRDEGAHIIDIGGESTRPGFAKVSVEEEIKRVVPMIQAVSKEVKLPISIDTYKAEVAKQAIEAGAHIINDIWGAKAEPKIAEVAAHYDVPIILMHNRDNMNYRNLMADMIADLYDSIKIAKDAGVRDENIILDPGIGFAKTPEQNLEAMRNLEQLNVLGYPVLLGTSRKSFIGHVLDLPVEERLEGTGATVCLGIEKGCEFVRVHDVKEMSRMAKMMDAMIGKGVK

Compound	IC50 [1]	zone of inhibition at 15000 µg/mL [2, 5]	zone of inhibition at 15000 µg/mL [3, 5]	MIC (S. mutans)	zone of inhibition at 15000 µg/mL (S. aureus (ATCC: 6538))	zone of inhibition at 15000 µg/mL (S. mutans (ATCC: 25175))	MIC (S. aureus)	MIC (P. aeruginosa; [6])	MIC (K. pneumonia; [6])	inhibition at 0.1 µg/mL ([1]; 0.1 μg/mL)	inhibition at 1 µg/mL ([1]; 1 μg/mL)	inhibition at 10 µg/mL ([1]; 10 μg/mL)	inhibition at 100 µg/mL ([1]; 100 μg/mL)	melting point	Diameter of the Inhibition Zone, E. coli (E. coli (ATCC: 3008); [5])	zone of inhibition at 15000 µg/mL [4]	other results
Nc1ccc(S(=O)(=O)Nc2ncccn2)cc1 [Sulfadiazine, reference compound]	28.5 µM	15.9 ± 0.9 mm	20.6 ± 1.4 mm	499 µM (≈ 125 µg/mL)	21.5 ± 0.6 mm	22.2 ± 1.1 mm	2000 µM (≈ 500 µg/mL)	999 µM (≈ 250 µg/mL)	999 µM (≈ 250 µg/mL)								inhibition at 0.1 µg/mL [1]: 11%; inhibition at 1 µg/mL [1]: 26%; inhibition at 10 µg/mL [1]: 56%; inhibition at 100 µg/mL [1]: 75%; zone of inhibition at 15000 µg/mL (E. coli (ATCC: 3008); [5]): 21.4 ± 0.4 mm
Cc1ccc(S(=O)(=O)NNC(=O)/C(=C/c2ccc(Cl)cc2)c2nc3ccccc3s2)cc1 [Compound 14b]	34.6 µM	15.6 ± 0.6 mm	24.3 ± 0.6 mm	258 µM (≈ 125 µg/mL)	31.6 ± 0.6 mm	21.6 ± 0.6 mm	129 µM (≈ 62.4 µg/mL)	517 µM (≈ 250 µg/mL)	1030 µM (≈ 500 µg/mL)	12%	24%	47%	65%	188 to 189 °C	-		
CNC(C)C1CCC(N)C(OC2C(N)CC(N)C(OC3OCC(C)(O)C(NC)C3O)C2O)O1 (stereo not shown) [Gentamicin, reference compound]																	zone of inhibition at 15000 µg/mL ([2]; 24 h): 25 ± 0.5 mm; zone of inhibition at 15000 µg/mL (E. coli (ATCC: 3008); 24 h): 27 ± 0.5 mm; zone of inhibition at 15000 µg/mL ([3]; 24 h): 30 ± 0.5 mm; MIC (P. aeruginosa): 131 µM (≈ 62.6 µg/mL); MIC (K. pneumonia): 65 µM (≈ 31 µg/mL)
Cc1ccc(-c2[nH][nH]c(=O)c2-c2nc3ccccc3s2)cc1 [Compound 16c, 4-(Benzo[d]thiazole-2-yl)-5-(p-tolyl)-1H-pyrazol-3(2H)-one]	35.9 µM	24.3 ± 0.6 mm		203 µM (≈ 62.4 µg/mL)	40.3 ± 0.6 mm	31.3 ± 0.6 mm	25 µM (≈ 7.68 µg/mL)		813 µM (≈ 250 µg/mL)	13%	31%	48%	68%	239 to 241 °C	-		Diameter of the Inhibition Zone, P. aeruginosa [3, 5]: -
O=c1[nH][nH]c(-c2ccc(Cl)cc2)c1-c1nc2ccccc2s1 [Compound 16b, 4-(Benzo[d]thiazole-2-yl)-5-(4-chlorophenyl)-1H-pyrazol-3(2H)-one]	23.9 µM		25.6 ± 0.6 mm	191 µM (≈ 62.6 µg/mL)	35.3 ± 0.6 mm	24.6 ± 0.6 mm	191 µM (≈ 62.6 µg/mL)	762 µM (≈ 250 µg/mL)		16%	31%	52%	72%	236 to 237.5 °C	-	10.6 ± 0.5 mm	Diameter of the Inhibition Zone, K. pneumonia [2, 5]: -
O=c1[nH][nH]c(-c2ccc(F)cc2)c1-c1nc2ccccc2s1 [Compound 16a, 4-(Benzo[d]thiazole-2-yl)-5-(4-florophenyl)-1H-pyrazol-3(2H)-one]	35.9 µM	17.3 ± 0.6 mm	16.6 ± 0.5 mm	200 µM (≈ 62.3 µg/mL)	15.3 ± 0.5 mm	25 ± 0.6 mm	1610 µM (≈ 500 µg/mL)	1610 µM (≈ 500 µg/mL)	803 µM (≈ 250 µg/mL)	12%	26%	49%	70%	238 to 240 °C	-	12.3 ± 0.5 mm	

Reference: paper PMC9774648, “Synthesis, Physicochemical Properties and Molecular Docking of New Benzothiazole Derivatives as Antimicrobial Agents Targeting DHPS Enzyme” (Antibiotics, 2022)
